According to patent publication US20220030866A1, “CONJUGATES OF AUXIN ANALOGS” (The State of Israel, Ministry of Agriculture & Rural …, priority 2019, published 2022):

Experiments:
Assay type in all cases: in vivo
DR5:venus marker = experiment: auxin activity by DR5:venus fluorescence in Arabidopsis plants; conditions: 10 μM
How it was run: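 Arabidopsis seedlings expressing nuclear DR5:venus, grown four days on MS medium, then transferred to plates with 10 μM compound for 24 h. Nuclear fluorescence imaged by confocal microscopy and averaged per segmented nucleus as auxin-activity readout; MS medium served as negative control.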

Arabidopsis seedlings [1] = experiment: adventitious root formation in intact etiolated Arabidopsis seedlings; conditions: intact etiolated seedlings; 50 nM, FIG. 17 legend 10 μM for one hour
Procedure: Adventitious roots (ARs) were induced in intact plants, using previously described procedures [Gutierrez et al., Plant Cell 2009, 21:3119-3132; Abu-Abied et al., Plant J 2012, 71:787-799; Rasmussen et al., Plant Physiol 2012, 158:1976-1987]. Briefly, seeds were germinated on MS/0.8% agar plates supplemented with 3% sucrose. The plates were kept in the dark for 2 days at 4° C., then 5 days at 22° C. in the dark, 2 days in the light, 3 days in the dark and then additional 4 days in the light to complete 2 weeks when roots were counted using a stereoscope. Sensitivity to auxin and/or auxin analogs was determined by following root elongation on vertical plates. The 4-day-old seedlings were transferred to MS plates containing 0.05 or 0.5 μM IAA and the root length was measured after 5 days, including the number of LRs in each root and calculation of the LR density. Each treatment experiment included 10-15 plants and was repeated 3 times.
In a third assay utilizing an Arabidopsis model, induction of adventitious root AR formation in intact plants was examined in the presence of 50 nM of tested compounds, which included 5 days incubation in the dark, followed by a shift to the light, according to procedures described by Sorin et al. [Plant Cell 2005, 17:1343-1359].
Conjugates prepared as described herein were evaluated in an Arabidopsis rooting model, according to procedures such as described hereinabove. Seeds were germinated and kept in the dark for 4 days. The etiolated seedlings were then incubated for 1 hour in 10 μM of each compound and then transferred to vertical MS medium-containing plates.

Arabidopsis seedlings [2] = experiment: root elongation inhibition in Arabidopsis seedlings; conditions: for effect on root elongation relative to control, in words: after 5 days
mung bean cuttings = experiment: rooting of mung bean cuttings (number of adventitious roots per cutting); conditions: for effect on AR formation in mung bean cuttings, in words: tested at 2, 10 or 50 μM
How it was run: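 Readout was the number of adventitious roots per cutting in mung bean cuttings. Conjugates of 4-CPA, MCPA and 2-DP were tested alongside unconjugated IBA and 2-DP–glycine methyl ester.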

[3] = tested on: cuttings from mature Eucalyptus grandis trees; experiment: rooting of cuttings from mature Eucalyptus grandis trees; conditions: 100 μM compound by submerging or spraying, with 6000 ppm IBA
[4] = 4 day old seedlings, 5 days on vertical plates

Row | Structure (SMILES) | DR5 fluorescence (auxin activity), in words (DR5:venus marker) | adventitious roots formed on average (Arabidopsis seedlings [1]) | effect on root elongation relative to control, in words (Arabidopsis seedlings [2]; 50 nM) | effect on AR formation in mung bean cuttings, in words (mung bean cuttings) | effect on root tip and root elongation zone (DR5:venus marker) | rooting in combination with IBA compared with IBA alone, in words [3] | time course of root elongation inhibition (Arabidopsis seedlings [2]; 50 nM, slight inhibition until day 3, complete from day 4) | potency in promoting DR5 fluorescence relative to Compound 1t (DR5:venus marker; fluorescent intensity) | concentration that inhibited root elongation significantly (Arabidopsis seedlings [2]; [4]) | concentration that inhibited root elongation totally (Arabidopsis seedlings [2]; [4]) | appearance of the base of mung bean cuttings (mung bean cuttings; FIGS. 4A, 4B)
1 | COC(=O)[C@@H](Cc1c[nH]c2ccccc12)NC(=O)COc1ccc(Cl)cc1 [Compound 1s, 4-CPA-D-Trp] | significantly lower fluorescence | 0.5±0.3 | did not affect root elongation | induced rooting to a degree positively correlated with concentration |  |  |  |  |  |  | 
2 | COC(=O)[C@H](Cc1c[nH]c2ccccc12)NC(=O)COc1ccc(Cl)cc1 [Compound 1t, 4-CPA-L-Trp] | the most potent conjugate | 4.7±0.9 | inhibited root elongation relative to control | induced rooting only at low concentrations | loss of auxin activity at the root tip, and swelling of the root elongation zone | at least as potent as that of their corresponding D-amino acid conjugates | biphasic behavior |  |  |  | 
3 | O=C(O)COc1ccc(Cl)cc1 [Compound 4-CPA, 4-chloro-phenoxyacetic acid, reference compound] | promoted fluorescence most strongly | 0.8±0.4 |  | induced a similar rooting rate only at the lowest tested concentration of 2 μM | loss of auxin activity at the root tip, and swelling of the root elongation zone | considerably less effective |  | about 2 fold | 50 nM | 100 nM | appeared swollen, but no AR developed
